In PMC11489226 (Archives of Toxicology, 2024):

What was measured:
mouse fibroblasts = tested on: mouse fibroblasts; set-up: method as in Stadnicki et al. [1979]; conditions: ref Stadnicki et al. [1979]; cited from earlier work
HEK293CYP2C9 cells [1] = test: Micronucleus assay in HEK293CYP2C9 cells; format: cell-based, human; conditions: 20 and 30 µM, 24 h
Experimental: (§1) Transgenic HEK293CYP2A6 and HEK293CYP2C9 cells were cultured in T25 flasks, with a seeding density of 1 × 10^6 cells per flask at 37 °C with 5% CO2. Cells were allowed to grow for 24 h geneticin free before PCBs were added (20 µM or 30 µM). Controls included cells grown in the presence of 1% ethanol (vol/vol) (negative control) or […] 4-nitroquinoline 1-oxide (positive control). Following further incubation for 24 h, cells were synchronized by adding Cytochalasin B. Subsequently, cells were harvested by trypsinization, centrifuged (2,000g, 10 min), and washed with DPBS (Dulbecco’s PBS). For hypotonic shock, 4 °C cold potassium chloride solution was added to the cells under agitation. Cells were completely resuspended and incubated at room temperature for 5 min. After centrifugation (2,500g, 10 min), the supernatant was discarded. To fix the cells, they were treated with a methanol/acetic acid solution (− 20 °C), with a minimum incubation time of 15 min at room temperature. Following centrifugation (2,500g, 10 min), the supernatant was discarded, and the fixation process was repeated at least three times. Finally, the samples were dissolved in 1 mL of fixative solution and incubated overnight at 4 °C. For analysis, two to three drops from each sample were placed on a glass slide, with intermittent heating of the slide. Subsequently, the cells were visualized with acridine orange, and using a fluorescence microscope (Leica DM6000B, Filter I3 450–490 nm), 2,000 cells per sample were counted.

human lymphocytes [2] = tested on: human lymphocytes; set-up: method as in Sargent et al. [1989]; conditions: ref Sargent et al. [1989]; cited from earlier work
HEK293CYP2A6 cells [3] = test: Micronucleus assay in HEK293CYP2A6 cells; format: cell-based, human; conditions: HEK293CYP2A6 cells; 20 and 30 µM, 24 h
Experimental: as §1

[4] = PCB concentrations in plasma of HELPcB participants (2010); format: in vivo, human; conditions: human, plasma, other: occupational exposure, sample of 2010
HEK293CYP2A6 cells [5] = test: MTT assay in HEK293CYP2A6 cells; format: cell-based, human; conditions: for Concentration from which the fraction of cell viability affected (FA) increased: HEK293CYP2A6 cells, MTT; for IC50: Homo sapiens, HEK293CYP2A6 cell line, read-out: IC50 (MTT, cell viability / metabolic activity); for PCB concentration at which the difference between HEK293 cells and CYP2A6 transgenic cells becomes statistically significant: MTT assay, Fig. 2
Experimental: For the determination of metabolic activity, HEK293 cells as well as transgenic HEK293CYP2A6 and HEK293CYP2C9 cells were plated into 96-well flat-bottomed microtiter plates (Becton Dickinson, Heidelberg, Germany) at a density of 1 × 10^5 cells in 100 μL of media. Cells were allowed to grow for 24 h geneticin free before PCBs were added. Controls included cells grown in medium with and without ethanol (maximal 1% (vol/vol)) added. After 48 h, the ability of remaining viable cells to transform 3-(4,5-dimethylthiazol-2-yl)-2,5-diphenyltetrazolium bromide (MTT) into formazan was assessed (MTT Cell Proliferation Assay, ATCC, Manassas, USA). The absorbance of the samples was measured on a Microplate Reader (FLUOstar, BMG Labtech, Ortenberg, Germany) at 450 nm.

HEK293CYP2A6 cells [6] = test: Neutral comet assay in HEK293CYP2A6 cells; format: cell-based, human; conditions: for Comet assay: percentage of tail DNA / DNA damage above background: 20 or 30 µM
Experimental: (§2) For neutral comet assays, transgenic CYP2A6 and transgenic CYP2C9 cells were treated with parent PCBs for 5 h. After treatments, 50 μL of a suspension of 10^5 cells/mL were washed in PBS and resuspended in 500 μL of preheated agarose (37 °C). The agarose/cell suspensions were applied to microscopic slides and left for 30 min at 4 °C to allow gel polymerization. After cell lysis using a commercial buffer (Trevigen, Gaithersburg, USA), single-cell gel electrophoresis was performed at 1 V/cm for 1 h. After precipitation of the DNA with ammonium acetate, samples were fixed in 70% ethanol for 30 min and dried. To visualize dsDNA, SYBR™ Green I Nucleic Acid Gel Stain (Invitrogen, Carlsbad, USA) was used. Pictures of at least 50 cells/section were taken using a fluorescence microscope (DMRX, Leica: 450–490 nm BP- filter, 40 × magnification). The extent of the genotoxic effect of PCBs was calculated using the ImageJ-based OpenComet software.

human lymphocytes [7] = tested on: human lymphocytes; set-up: method as in Stadnicki et al. [1979]; conditions: ref Stadnicki et al. [1979]; cited from earlier work
[8] = tested on: Salmonella typhimurium strains; set-up: method as in Wyndham et al. [1976]; conditions: PCB52 and its primary metabolites; ref Wyndham et al. [1976]; cited from earlier work
bone marrow and liver = tested on: bone marrow and liver; set-up: method as in Sargent et al. [1992]; conditions: ref Sargent et al. [1992]; cited from earlier work
HEK293CYP2A6 cells [9] = test: Light microscopic evaluation of HEK293CYP2A6 cells; format: cell-based, human; conditions: 24 h of incubation (data not shown)
human lung fibroblast = tested on: human lung fibroblast; set-up: method as in Hashmi et al. [2015]; conditions: higher concentrations compared to lower concentrations; ref Hashmi et al. [2015]; cited from earlier work
fish cells = tested on: fish cells; set-up: method as in Marabini et al. [2011]; conditions: ref Marabini et al. [2011]; cited from earlier work
HEK293CYP2C9 cells [10] = test: Neutral comet assay in HEK293CYP2C9 cells; format: cell-based, human; conditions: HEK293CYP2C9 control cells; 20 or 30 µM
Experimental: as §2

CYP2A6 = target: T1, CYP2A6 (Homo sapiens, UniProt P11509); test: Urinary 1,7-dimethyluric acid/paraxanthine metabolic ratio after caffeine (CYP2A6 phenotyping); conditions: urine, 0–360 min after 50 mg caffeine oral; ten PCB-exposed subjects
T1 sequence (P11509 1-494): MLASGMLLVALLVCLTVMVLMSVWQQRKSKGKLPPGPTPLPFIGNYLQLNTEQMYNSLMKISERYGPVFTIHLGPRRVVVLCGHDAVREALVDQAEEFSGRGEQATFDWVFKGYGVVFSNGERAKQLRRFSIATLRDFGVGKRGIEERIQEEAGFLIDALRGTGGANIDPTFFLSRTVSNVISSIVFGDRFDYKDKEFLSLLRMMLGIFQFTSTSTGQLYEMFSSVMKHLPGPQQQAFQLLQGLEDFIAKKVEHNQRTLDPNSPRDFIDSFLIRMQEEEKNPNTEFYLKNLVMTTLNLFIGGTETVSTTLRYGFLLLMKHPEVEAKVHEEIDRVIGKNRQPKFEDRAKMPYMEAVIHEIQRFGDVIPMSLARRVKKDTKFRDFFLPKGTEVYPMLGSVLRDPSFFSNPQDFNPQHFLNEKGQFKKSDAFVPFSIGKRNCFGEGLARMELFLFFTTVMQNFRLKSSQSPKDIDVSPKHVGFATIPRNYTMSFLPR
From the text: Ten subjects with prior occupational exposure to PCBs and ten controls were included into a clinical CYP phenotyping cocktail study at the Institute for Occupational, Social and Environmental Medicine, University Hospital RWTH Aachen. PCB-exposed participants were reinvited from the HELPcB (Health Effects in High-Level Exposure to PCB) medical surveillance program. […] Subjects were allowed to consume non-caffeinated beverages and received a meal 3 following the administration of the drug cocktail. Concentrations of the test compounds and their CYP-mediated metabolites were measured using LC–MS, with urine sampling over 24 h with 5 time points at 1,2,4,6, and 24 h after drug cocktail intake. […] Urine samples were weighed during sampling.
20 µL urine or calibrators and quality controls in Sigmatrix urine diluent (SAE0074-1L, Sigma-Aldrich) were protein precipitated with 80 µL methanol including 1000 ng/mL internal standards caffeine-d9, paraxanthine-d6, and 1,7-dimethyluric acid-d3. Samples were briefly vortexed and centrifuged for 5 min at 17,000g and 4 °C. […] Caffeine and paraxanthine were detected in positive ion mode and 1,7-dimethyluric acid in negative ion mode. […] The metabolic ratio for 1,7-dimethyluric acid/paraxanthine was calculated based on the measured urine concentrations. […]

Clc1ccc(Cl)c(-c2cc(Cl)ccc2Cl)c1 [PCB52, 2,2′,5,5′-tetrachlorobiphenyl]
DNA strand breaks (mouse fibroblasts): positive or weakly positive
Percentages of micronuclei (HEK293CYP2C9 cells [1]): indistinguishable effects
Sister chromatid exchange (human lymphocytes [2]): negative
Percentages of micronuclei (HEK293CYP2A6 cells [3]): diminished effect
concentration at 2010 calendar year ([4]; HELPcB participant AD): 0.026 ng/mL
concentration at 2010 calendar year ([4]; HELPcB participant AE): 0.005 ng/mL
concentration at 2010 calendar year ([4]; HELPcB participant eight): 0.005 ng/mL
concentration at 2010 calendar year ([4]; HELPcB participant five): 0.031 ng/mL
concentration at 2010 calendar year ([4]; HELPcB participant four): 0.005 ng/mL
concentration at 2010 calendar year of sampling ([4]; HELPcB participant one): 0.348 ng/mL
concentration at 2010 calendar year ([4]; HELPcB participant seven): 0.021 ng/mL
concentration at 2010 calendar year ([4]; HELPcB participant six): 0.043 ng/mL
concentration at 2010 calendar year ([4]; HELPcB participant three): 0.04 ng/mL
concentration at 2010 calendar year of sampling ([4]; HELPcB participant two): 0.005 ng/mL
Concentration from which the fraction of cell viability affected (FA) increased (HEK293CYP2A6 cells [5]): 20 µM
IC50 (HEK293CYP2A6 cells [5]): 26.2 µM
PCB concentration at which the difference between HEK293 cells and CYP2A6 transgenic cells becomes statistically significant (HEK293CYP2A6 cells [5]): 40 µM
DNA damage classified according to the comet scale (percentage of tail DNA) (HEK293CYP2A6 cells [6]; 20 µM): low damage
DNA damage classified according to the comet scale (percentage of tail DNA) (HEK293CYP2A6 cells [6]; 30 µM): low damage
Comet assay: percentage of tail DNA / DNA damage above background (HEK293CYP2A6 cells [6]): not
DNA strand breaks (human lymphocytes [7]): positive or weakly positive
Mutagenic activity [8]: did not exhibit mutagenic activity
Chromosomal aberrations in vivo (bone marrow and liver): absence of chromosomal aberrations
Light microscopic evaluation: type of effect (HEK293CYP2A6 cells [9]): cytostatic effects (proliferation arrest)

Clc1ccc(Cl)c(-c2cc(Cl)c(Cl)cc2Cl)c1 [PCB101, 2,2′,4,5,5′-pentachlorobiphenyl]
Percentages of micronuclei (HEK293CYP2C9 cells [1]): inactive
Percentages of micronuclei (HEK293CYP2A6 cells [3]): approximately threefold elevated
concentration at 2010 calendar year ([4]; HELPcB participant AD): 0.073 ng/mL
concentration at 2010 calendar year ([4]; HELPcB participant AE): 0.005 ng/mL
concentration at 2010 calendar year ([4]; HELPcB participant eight): 0.005 ng/mL
concentration at 2010 calendar year ([4]; HELPcB participant five): 0.111 ng/mL
concentration at 2010 calendar year ([4]; HELPcB participant four): 0.005 ng/mL
concentration at 2010 calendar year of sampling ([4]; HELPcB participant one): 0.519 ng/mL
concentration at 2010 calendar year ([4]; HELPcB participant seven): 0.03 ng/mL
concentration at 2010 calendar year ([4]; HELPcB participant six): 0.227 ng/mL
concentration at 2010 calendar year ([4]; HELPcB participant three): 0.078 ng/mL
concentration at 2010 calendar year of sampling ([4]; HELPcB participant two): 0.005 ng/mL
Concentration from which the fraction of cell viability affected (FA) increased (HEK293CYP2A6 cells [5]): 20 µM
IC50 (HEK293CYP2A6 cells [5]): 34.8 µM
PCB concentration at which the difference between HEK293 cells and CYP2A6 transgenic cells becomes statistically significant (HEK293CYP2A6 cells [5]): 60 µM
DNA damage classified according to the comet scale (percentage of tail DNA) (HEK293CYP2A6 cells [6]; 20 µM): high damage
DNA damage classified according to the comet scale (percentage of tail DNA) (HEK293CYP2A6 cells [6]; 30 µM): moderate damage
Comet assay: percentage of tail DNA / DNA damage above background (HEK293CYP2A6 cells [6]): DNA damage was also seen
Genotoxicity compared with etoposide (comet assay) (HEK293CYP2A6 cells [6]; etoposide 10 µm positive control): more potent than of etoposide
Genotoxicity (human lung fibroblast): increased significantly
DNA strand breaks (fish cells): induce
Micronucleus formation (fish cells): induce
Light microscopic evaluation: type of effect (HEK293CYP2A6 cells [9]): cytostatic effects (proliferation arrest)

Clc1ccc(-c2ccc(Cl)cc2Cl)cc1 [PCB28, 2,4,4′-trichlorobiphenyl]
Percentages of micronuclei (HEK293CYP2C9 cells [1]): inactive
Comet assay: increase in percentage of tail DNA (HEK293CYP2C9 cells [10]): not evident
concentration at 2010 calendar year ([4]; HELPcB participant AD): 0.823 ng/mL
concentration at 2010 calendar year ([4]; HELPcB participant AE): 1.48 ng/mL
concentration at 2010 calendar year ([4]; HELPcB participant eight): 0.1 ng/mL
concentration at 2010 calendar year ([4]; HELPcB participant five): 0.21 ng/mL
concentration at 2010 calendar year ([4]; HELPcB participant four): 0.023 ng/mL
concentration at 2010 calendar year of sampling ([4]; HELPcB participant one): 2.69 ng/mL
concentration at 2010 calendar year ([4]; HELPcB participant seven): 0.051 ng/mL
concentration at 2010 calendar year ([4]; HELPcB participant six): 0.309 ng/mL
concentration at 2010 calendar year ([4]; HELPcB participant three): 0.999 ng/mL
concentration at 2010 calendar year of sampling ([4]; HELPcB participant two): 0.019 ng/mL
Concentration from which the fraction of cell viability affected (FA) increased (HEK293CYP2A6 cells [5]): 10 µM
IC50 (HEK293CYP2A6 cells [5]): 27 µM
PCB concentration at which the difference between HEK293 cells and CYP2A6 transgenic cells becomes statistically significant (HEK293CYP2A6 cells [5]): 40 µM
DNA damage classified according to the comet scale (percentage of tail DNA) (HEK293CYP2A6 cells [6]; 20 µM): moderate damage
DNA damage classified according to the comet scale (percentage of tail DNA) (HEK293CYP2A6 cells [6]; 30 µM): moderate damage
Comet assay: percentage of tail DNA / DNA damage above background (HEK293CYP2A6 cells [6]): concentration-dependent increase
Light microscopic evaluation: type of effect (HEK293CYP2A6 cells [9]): primarily cytotoxic effects (cell death)

Cn1c(=O)[nH]c2[nH]c(=O)n(C)c2c1=O [1,7-DMU, 1,7-dimethyluric acid]
Logarithmically transformed metabolic ratio of 1,7-DMU and paraxanthine, median (CYP2A6): 0.4
